Reference: publication PMC13400319 (Chemmedchem, 2026)
Like-named read-outs stand apart in the source and are kept apart here.

Target: T1, Aβ42 (Homo sapiens, UniProt P05067)
T1 construct: amyloid beta (1–42) (Aβ42) self‐aggregation; purchased GenicBio Limited (Shanghai, China)
Assay: Inhibition of Aβ42 self-aggregation (Thioflavin T fluorescence)
Assay type: biochemical
Settings: read-out: Inhibition of Aβ42 self-aggregation, %
Protocol: Inhibition of β-amyloid (1– 42) (Aβ42) self-aggregation
Inhibition of Aβ42 self-aggregation by test compounds was studied using the thioflavin T (ThT)
fluorescence method [8- 10] with minor modifications as described in detail in [11]. Lyophilized
HFIP- pretreated Aβ42 (GenicBio Limited (Shanghai, China), 1 mg) was dissolved in DMSO to
obtain a stable 500 μM solution.
pH 8.0 were incubated for 24 h at 37°C in the absence or presence of 100 μM test compounds.
Myricetin in the same concentration was used as reference. After incubation, 5 μM ThT in 50
mM glycine-NaOH buffer pH 8.5 was added, and the fluorescence was measured at 440 nm
Each assay was run in triplicate. The degree of
inhibition of Aβ42 self-aggregation by the studied compounds (%) was calculated by the
of inhibitor, respectively, after subtracting the fluorescence of respective blanks.

T1 sequence (P05067 672-713 limits assumed): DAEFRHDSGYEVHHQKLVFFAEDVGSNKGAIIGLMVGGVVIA

| Compound | inhibition at 100 µM (Aβ42 50 µM, compound 100 µM) [%] | inhibition at 100 µM [%] |
| --- | --- | --- |
| Nc1c2c(nc3c1CCC3)CCCC2 [Amiridine, amiridine] | 6.4 ± 0.5 |  |
| O=c1c(O)c(-c2cc(O)c(O)c(O)c2)oc2cc(O)cc(O)c12 [Myricetin] |  | 74.7 ± 5.2 |
